In patent US6531499B2, “Matrix metalloproteinase inhibitors and method of using same” (Wisconsin Alumni Research Foundation, priority 1999, dated 2003):

What was measured:
F442A fibroblast = type: cell-based; conditions: concentrations up to 100 μM; 6 to 24 hours in serum-free medium
Protocol: Toxicity of the compounds was determined by incubating several log doses of the compound and solvent controls for 6 to 24 hours in serum-free medium. The cell number was then determined by comparing the absorbance of crystal violet with controls, and cell death determined by trypan blue dye exclusion in conventional and well known fashion. The model cell line used was a murine fibroblast cell line designated F442A, which was generously provided by Dr. Howard Green of Harvard University.
The compounds were cleaved from the beads into a single solution and tested in this combined fashion.

MMP-2 = target: T1, MMP-2 (Homo sapiens, UniProt P08253); assay: Colorimetric 96-well thiopeptolide collagenase assay; type: biochemical; conditions: change in absorbance at 405 nm
T1 sequence (P08253 110-660): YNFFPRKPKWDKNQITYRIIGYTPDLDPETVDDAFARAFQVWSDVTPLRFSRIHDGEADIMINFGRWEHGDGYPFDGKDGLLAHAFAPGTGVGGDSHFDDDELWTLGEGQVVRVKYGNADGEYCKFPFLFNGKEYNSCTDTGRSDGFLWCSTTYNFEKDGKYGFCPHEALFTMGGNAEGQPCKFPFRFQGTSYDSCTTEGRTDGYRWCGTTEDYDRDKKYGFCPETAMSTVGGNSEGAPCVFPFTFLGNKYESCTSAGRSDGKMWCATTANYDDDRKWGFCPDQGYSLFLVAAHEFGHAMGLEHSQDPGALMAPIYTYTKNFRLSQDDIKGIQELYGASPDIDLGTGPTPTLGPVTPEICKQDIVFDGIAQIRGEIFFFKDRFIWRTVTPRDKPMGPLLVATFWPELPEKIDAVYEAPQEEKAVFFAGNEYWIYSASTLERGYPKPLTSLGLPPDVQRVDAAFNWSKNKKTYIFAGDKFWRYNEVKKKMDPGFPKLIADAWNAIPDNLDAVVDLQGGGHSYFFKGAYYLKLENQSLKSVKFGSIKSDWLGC
Protocol: The preferred assay method to measure MMP inhibitory activity is a colorimetric assay which can be monitored spectrophotometrically. Specifically, the ability of the subject matrix metalloproteinase inhibitors to suppress MMP-2 or MMP-9 activity is assessed using a colorimetric 96-well thiopeptolide collagenase assay as described by Xia et al. (Xia T, Akers K, Eisen A Z and Seltzer J L. (1996) Biochim et Biophy Acta. 1293:259). This protocol entails the cleavage of a thiopeptolide substrate AcProLeuGly-S-LeuGlyOC2H5 (Bachem Bioscience, Cat # H7145) by MMP-2 or MMP-9, giving a free sulfhydryl group. The free —SH then reacts with DTNB (Ellman's reagent, 5,5′-dithio-bis(2-nitrobenzoic acid)) giving a colored molecule whose formation can be examined spectrophotometrically at 405 nm.
The thiopeptolide substrate (5 μL/well, 5 mM in DMF), DTNB (15 μL/well, 10 mM in 50 mM HEPES, 10 mM CaCl2, pH 6.92), and matrix metalloproteinase inhibitors or DMSO (total volume equal to 5 μL/well) are mixed in a 96-well plate (Falcon). A single row of wells is used for each matrix metalloproteinase inhibitor and various inhibitor concentrations are used to control for row to row variation in collagenase activity. The reaction is then initiated by pipeting 130 μL of a solution of collagenase buffer (126 μL/well, 50 mM HEPES, 10 mM CaCl2, pH 6.92) and activated MMP-2 or MMP-9 (4 μL/well, 0.05 M borate, pH 7.46, 5 mM CaCl2 , 20% glycerol, 0.0005% Brij-35) into a row of wells using a 12-channel multipipeter. The change in absorbance from 0-20 minutes is then monitored at 405 nm using an ELX 800 automated microplate reader (Bio-Tek Instruments, Inc., Winooski, Vt.). The change in absorbance is calculated and graphed.
The thiopeptolide substrate AcProLeuGly-S-LeuGlyOC2H5 (5 μL/well, 5 mM in DMF), DTNB (15 μL/well, 10 mM in 50 mM HEPES, 10 mM CaCl2, pH 6.92), and matrix metalloproteinase inhibitors or DMSO (total volume equal to 5 μL/well) were mixed in a 96-well plate. A single row of wells was used for each concentration of the test compound and concentrations of 10, 20, and 40 μM of the test compound were used. The reaction was then initiated by pipeting 130 μL of a solution of collagenase buffer (126 μL/well, 50 mM HEPES, 10 mM CaCl2, pH 6.92) and activated MMP-2 (4 μL/well, 0.05 M borate, pH 7.46, 5 mM CaCl2, 20% glycerol, 0.0005% Brij-35) into a row of wells using a 12-channel multipipeter. The change in absorbance from 0-20 minutes was then monitored at 405 nm. The change in absorbance was calculated and graphed; the results are depicted in FIG. 4.

HiMel cells = assay: In vitro invasion assay: HiMel cell penetration of […] (Transwell); type: cell-based, human; conditions: same assay as Example 3; concentration not given
Description: An 8 μm pore filter coated with “[…]” separates a series of lower compartments containing a chemoattractant and a corresponding series of upper compartments containing metastatic and non-metastatic cells and a compound to be tested. The metastatic cells are able to degrade the “[…]” barrier and, over a period of time, migrate through the pores of the filter whereas non-metastatic cells remain on the upper surface. The cells that pass to the underside of the filter are counted under a microscope to determine the extent to which they are able to pass from the upper compartment into the lower compartment. […]
This method has been refined to increase the number of assays which may be performed and analyzed per day. […] Motility of the cells through the 8 μm filters is not by passive diffusion since the pore size is smaller than the cells, and is determined in the same chamber in the absence of “[…]”. […]
Compounds to be tested were dissolved in DMSO and were added in serial dilutions of 0 (control) 1, and 10 μM. […] Invasive cells found on the under side of the filter were measured by solubilizing the stain in 10% acetic acid 20% methanol and reading the absorbance at 595 nm.

[1] = 0 (control), 40, 80, and 160 μM

O=C(CN(CCCCc1ccccc1)C(=O)CN(CCCc1ccccc1)C(=O)Nc1ccc(Oc2ccccc2)cc1)NO
effect on the growth / viability of fibroblasts (F442A fibroblast): no significant effect | inhibition of MMP-2 collagenase activity (MMP-2; [1]): inhibits MMP-2 collagenase activity in a dose-dependent fashion

O=C(Nc1ccc(Oc2ccccc2)cc1)Nc1ccc(Oc2ccccc2)cc1
inhibition of MMP-2 collagenase activity (MMP-2; [1]): inhibits MMP-2 collagenase activity in a dose-dependent fashion

O=C(CN(Cc1ccccc1)C(=O)CN(CCCc1ccccc1)C(=O)Nc1ccc(Oc2ccccc2)cc1)NO
inhibition of HiMel MATRIGEL invasion as compared to the control (HiMel cells): approximately 50% | effect on the growth / viability of fibroblasts (F442A fibroblast): no significant effect | inhibition of MMP-2 collagenase activity (MMP-2; 10, 20, and 40 μM, 0-20 minutes): inhibited MMP-2 collagenase activity in a dose-dependent manner

O=C(Nc1ccc(Oc2ccccc2)cc1)Nc1ccc(-c2ccccc2)cc1
inhibition of HiMel MATRIGEL invasion as compared to the control (HiMel cells): approximately 50% | inhibition of MMP-2 collagenase activity (MMP-2; [1]): inhibits MMP-2 collagenase activity in a dose-dependent fashion

NC(=O)CN(Cc1ccccc1)C(=O)CN(CCCc1ccccc1)C(=O)Nc1ccc(Oc2ccccc2)cc1
inhibition of MMP-2 collagenase activity (MMP-2; [1]): inhibits MMP-2 collagenase activity in a dose-dependent fashion
